Assay results taken from ChEMBL document CHEMBL5257044, “Arylnaphthalene Lignans with Anti-SARS-CoV-2 and Antiproliferative Activities from the Underground Organs of Linum austriacum and Linum perenne” (J Nat Prod, 2023).

Tests used:
HT-29 = test: Cytotoxicity against human HT-29 cells incubated for 24 hrs by AlamarBlue staining based analysis; type: functional, cell-based; conditions: HT-29, 24 h
SARS-CoV-2 [1] = test: Antiviral activity against SARS-COV2 EPI_ISL_1172022 infected in african green monkey Vero E6 cells assessed as inhibition of viral replication incubated for 48 hrs by RT-qPCR analysis; type: functional, organism-based; conditions: Severe acute respiratory syndrome coronavirus 2, EPI_ISL_1172022, Vero C1008, 48 h
[2] = Cytotoxicity against human U87 cells incubated for 24 hrs by AlamarBlue staining based analysis; type: functional, cell-based, U-87MG ATCC; conditions: U-87 MG
EBC-1 = test: Cytotoxicity against human EBC-1 cells incubated for 24 hrs by AlamarBlue staining based analysis; type: functional, cell-based; conditions: EBC-1, 24 h
MONO-MAC-6 = test: Cytotoxicity against human MONO-MAC-6 cells incubated for 24 hrs by AlamarBlue staining based analysis; type: functional, cell-based; conditions: MONO-MAC-6, 24 h
A2058 = test: Cytotoxicity against human A2058 cells incubated for 24 hrs by AlamarBlue staining based analysis; type: functional, cell-based; conditions: A2058, 24 h
PC-3 = test: Cytotoxicity against human PC-3 cells incubated for 24 hrs by AlamarBlue staining based analysis; type: functional, cell-based; conditions: PC-3, 24 h
Calu-1 = test: Cytotoxicity against human Calu-1 cells incubated for 24 hrs by AlamarBlue staining based analysis; type: functional, cell-based; conditions: Calu-1, 24 h
HepG2 = test: Cytotoxicity against human HepG2 cells incubated for 24 hrs by AlamarBlue staining based analysis; type: functional, cell-based; conditions: HepG2, 24 h
NCI-H838 = test: Cytotoxicity against human NCI-H838 cells incubated for 24 hrs by AlamarBlue staining based analysis; type: functional, cell-based; conditions: NCI-H838, 24 h
A549 [3] = test: Cytotoxicity against human A549 cells incubated for 24 hrs by AlamarBlue staining based analysis; type: functional, cell-based; conditions: A549, 24 h
A549 [4] = test: Cytotoxicity against human A549 cells measured after 3 days by MTT assay; type: functional, cell-based; conditions: A549, 72 h
SARS-CoV-2 [5] = test: Antiviral activity against SARS-COV2 EPI_ISL_1172022 infected in african green monkey Vero E6 cells assessed as log reduction in viable virus at 12.5 uM incubated for 48 hrs by RT-qPCR analysis; type: functional, Severe acute respiratory syndrome coronavirus 2
A549 [6] = test: Cytotoxicity against human A549 cells incubated for 24 hrs by MTS assay; type: functional, cell-based; conditions: A549, 24 h
TE-1 = test: Antiproliferative activity against human TE-1 cells measured after 2 days by CCK-8 method; type: functional, cell-based; conditions: TE-1, 48 h
[7] = Cytotoxicity against African green monkey Vero E6 cells incubated for 48 hrs by CCK-8 assay; type: toxicity, cell-based, Vero C1008; conditions: African green monkey (Chlorocebus sabaeus)
SARS-CoV-2 [8] = test: Antiviral activity against SARS-COV2 infected in african green monkey Vero E6 cells assessed as inhibition of viral replication incubated for 48 hrs by plague assay; type: functional, organism-based; conditions: Severe acute respiratory syndrome coronavirus 2, Vero C1008, 48 h
ECa-109 cell line = test: Antiproliferative activity against human Eca-109 cells measured after 2 days by CCK-8 method; type: functional, cell-based; conditions: ECa-109, 48 h
RPMI-8226 = test: Cytotoxicity against human RPMI-8226 cells assessed as reduction in cell viability measured after 72 hrs by MTT assay; type: functional, cell-based; conditions: RPMI-8226, 72 h
BGC-823 = test: Cytotoxicity against human BGC-823 cells assessed as reduction in cell viability measured after 4 days by MTT colorimetric assay; type: functional, cell-based; conditions: BGC-823, 96 h

| SMILES | IC50 (HT-29) [µM] | IC50 (SARS-CoV-2 [1]) [µM] | IC50 [2] [µM] | IC50 (EBC-1) [µM] | IC50 (MONO-MAC-6) [µM] | IC50 (A2058) [µM] | IC50 (PC-3) [µM] | IC50 (Calu-1) [µM] | IC50 (HepG2) [µM] | IC50 (NCI-H838) [µM] | IC50 (A549 [3]) [µM] | IC50 (A549 [4]) [µM] | log(activity) (SARS-CoV-2 [5]) | IC50 (A549 [6]) [µM] | IC50 (TE-1) [µM] | IC50 at 48 h [7] [µM] | IC50 (SARS-CoV-2 [8]) [µM] | IC50 (ECa-109 cell line) [µM] | IC50 (RPMI-8226) [µM] | IC50 (BGC-823) [µM] |
| --- | --- | --- | --- | --- | --- | --- | --- | --- | --- | --- | --- | --- | --- | --- | --- | --- | --- | --- | --- | --- |
| COc1cc2cc(COC(=O)CC(=O)O)c(C(=O)O[C@@H]3O[C@H](COC(=O)CC(C)(O)CC(=O)O)[C@@H](O)[C@H](O)[C@H]3O)c(-c3ccc4c(c3)OCO4)c2cc1OC (some centres not stated) | 19.9 | > 100 | > 100 | 19.2 | 7.1 | 2.4 | 3.2 | 67 | > 100 | 16 | 26.3 |  |  |  |  |  |  |  |  |  |
| CCN(CC)CCCC(C)Nc1ccnc2cc(Cl)ccc12 (configuration not stated) [CHLOROQUINE] |  | 50.2 |  |  |  |  |  |  |  |  |  |  |  |  |  |  |  |  |  |  |
| COc1cc([C@@H]2c3cc4c(cc3[C@@H](O[C@@H]3O[C@@H]5CO[C@@H](C)O[C@H]5[C@H](O)[C@H]3O)[C@H]3COC(=O)[C@H]23)OCO4)cc(OC)c1O [ETOPOSIDE] | 18.5 |  | 27 | 15.7 | 2.2 | 8.9 | 8 | > 100 | 20.9 | > 100 | > 100 |  |  |  |  |  |  |  |  |  |
| COc1cc2cc(COC(=O)CC(=O)O)c(C(=O)O)c(-c3ccc4c(c3)OCO4)c2cc1OC | > 100 | > 100 | > 100 | 16 | 70.1 | 25.1 | 32.8 | > 100 | > 100 | > 100 | > 100 |  |  |  |  |  |  |  |  |  |
| COc1cc2c(O)c3c(c(-c4ccc5c(c4)OCO5)c2cc1OC)C(=O)OC3 [DIPHYLLIN] | 19.5 | > 100 | 26.1 | 14.8 | 3.9 | 2.6 | 3.8 | 31.8 | 21.6 | 16 | 8.8 | 24 | >3 | 2.02 | 0.28 | > 100 | 1.92 | 0.21 |  |  |
| COc1cc2cc3c(c(-c4ccc5c(c4)OCO5)c2cc1OC)C(=O)OC3 | 5.9 | > 100 | 21.6 | 63.2 | 2.5 | 8.9 | 5.7 | 18.5 | 16.8 | 11 | 11.4 |  | >3 |  |  |  |  |  | 0.17 | 0.18 |
| CC(=O)Oc1ccccc1C(=O)Nc1ncc([N+](=O)[O-])s1 [NITAZOXANIDE] |  | 82.7 |  |  |  |  |  |  |  |  |  |  |  |  |  |  |  |  |  |  |
| CC(C)C(=O)OC[C@H]1O[C@@H](n2cc/c(=N\O)[nH]c2=O)[C@H](O)[C@@H]1O [MOLNUPIRAVIR] |  | > 100 |  |  |  |  |  |  |  |  |  |  |  |  |  |  |  |  |  |  |
